Values quoted from earlier work in US20250082708A1, “HERBAL COMPOSITION FOR USE IN THE TREATMENT OR PREVENTION OF POSTPARTUM DEPRESSION” (CRISTALFARMA S.R.L., priority 2022, published 2025).

System: women with postpartum depression
Conditions: 8 weeks treatment; Amini et al.

## vitamin D
  reduction of EPDS questionnaire score with respect to baseline, versus placebo control group: greater reduction
